Assay results: patent publication US5380668A (University of Utah Research Foundation, priority 1993, dated 1995)
Where a SMILES comes first, the peptide text is derived from it. [ ]: non-standard residue; d: D form. βAla = NCCC(=O)O

Legend:
[1] = system: second monoclonal antibody against hCG
[2] = system: anti-hCG monoclonal antibody directed against a portion of the β-subunit of hCG; experiment: EIA binding of BSA-conjugated peptide with anti-hCG monoclonal antibody; settings: peptide conjugated to BSA, absorbed on 96-well plate; antibody overnight at 4° C; alkaline phosphatase labeled protein A
Excerpt: The peptide was conjugated through its thiol group to BSA using a heterobifunctional cross-linking reagent (succinimidyl 4-(N-maleimidomethyl)cyclohexane-1-carboxylate). The conjugates were first absorbed on the wells of a ninety-six well plate. Nonspecific binding sites on the surface was masked by unlabeled BSA. […] Alkaline phosphatase labeled protein A was used for the color development.

Row | Compound | Krel (relative binding affinity) [1] | binding with anti-hCG antibody (EIA response) [2]
1 | CC[C@H](C)[C@H](NC(=O)[C@@H]1CCCN1C(=O)CNC(=O)[C@H](C)NC(=O)[C@H](CO)NC(=O)CNC(=O)[C@H](CO)NC(=O)CN)C(=O)N[C@@H](Cc1ccc(O)cc1)C(=O)N[C@H](C(=O)N[C@@H](Cc1ccccc1)C(=O)NCC(=O)NCCC(=O)O)C(C)C [SEQ ID NO: 19, Gly--Ser--Gly--Ser--Ala--Gly--Pro--Ile--Tyr--Val--Phe--Gly--βAla] (H-GSGSAGPIYVFG[βAla]-OH) | 6.6 | –
2 | CC(C)[C@H](NC(=O)[C@@H]1CCCN1C(=O)CNC(=O)[C@H](C)NC(=O)[C@H](CO)NC(=O)CNC(=O)[C@H](CO)NC(=O)CN)C(=O)N[C@@H](Cc1ccc(O)cc1)C(=O)N[C@@H](CO)C(=O)N[C@@H](Cc1ccccc1)C(=O)NCC(=O)NCCC(=O)O [SEQ ID NO: 20, Gly--Ser--Gly--Ser--Ala--Gly--Pro--Val--Tyr--Ser--Phe--Gly--βAla] (H-GSGSAGPVYSFG[βAla]-OH) | 2.0 | –
3 | C[C@H](NC(=O)[C@H](CO)NC(=O)CNC(=O)[C@H](CO)NC(=O)CN)C(=O)NCC(=O)N1CCC[C@H]1C(=O)N[C@@H](CCCNC(=N)N)C(=O)N[C@@H](Cc1ccc(O)cc1)C(=O)N[C@@H](CC(N)=O)C(=O)N[C@@H](Cc1ccccc1)C(=O)NCC(=O)NCCC(=O)O [SEQ ID NO: 21, Gly--Ser--Gly--Ser--Ala--Gly--Pro--Arg--Tyr--Asn--Phe--Gly--βAla] (H-GSGSAGPRYNFG[βAla]-OH) | 1.6 | –
4 | CC[C@H](C)[C@H](NC(=O)[C@@H]1CCCN1C(=O)CNC(=O)[C@H](C)NC(=O)[C@H](CO)NC(=O)CNC(=O)[C@H](CO)NC(=O)CN)C(=O)N[C@@H](Cc1ccc(O)cc1)C(=O)N[C@@H](CC(=O)O)C(=O)N[C@@H](Cc1ccccc1)C(=O)NCC(=O)NCCC(=O)O [SEQ ID NO: 22, Gly--Ser--Gly--Ser--Ala--Gly--Pro--Ile--Tyr--Asp--Phe--Gly--βAla] (H-GSGSAGPIYDFG[βAla]-OH) | 1.3 | –
5 | CSCC[C@H](NC(=O)[C@H](Cc1ccc(O)cc1)NC(=O)[C@H](CCC(N)=O)NC(=O)[C@@H]1CCCN1C(=O)CNC(=O)[C@H](C)NC(=O)[C@H](CO)NC(=O)CNC(=O)[C@H](CO)NC(=O)CN)C(=O)N[C@@H](Cc1ccccc1)C(=O)NCC(=O)NCCC(=O)O [SEQ ID NO: 23, Gly--Ser--Gly--Ser--Ala--Gly--Pro--Gln--Tyr--Met--Phe--Gly--βAla] (H-GSGSAGPQYMFG[βAla]-OH) | 1.0 | –
6 | H2 N-Gly-Gly-Arg-Leu-Pro-Gly-Pro-Ser-Asp-Cys-Gly-COOH (H-GGRLPGPSDCG-OH) [EXAMPLE I] | – | positive results
